IC50 data for 3 compounds are collected here from ChEMBL document CHEMBL2176926, “Crystal structure of human aurora B in complex with INCENP and VX-680” (J Med Chem, 2012).

Usually IC50 stands for the concentration at which inhibition is half-maximal. The low end stands for inhibition by little substance, the high end for a need for much substance.

One experiment addresses Aurora kinase B-A (Xenopus laevis, UniProt Q6DE08). As to the kind of experiment: Inhibition of Xenopus laevis Aurora kinase B/INCEP complex using gamma-[32P]ATP incubated for 1 hr by autoradiography.
A further experiment deals with Aurora kinase B (Homo sapiens, UniProt Q96GD4). Briefly: Inhibition of human Aurora kinase B/INCEP complex expressed in Escherichia coli BL21 (DE3) using gamma-[32P]ATP incubated for 1 hr by autoradiography.
The next experiment concerns the target T1, Aurora kinase A (Homo sapiens, UniProt O14965).
T1 sequence (O14965 whole entry): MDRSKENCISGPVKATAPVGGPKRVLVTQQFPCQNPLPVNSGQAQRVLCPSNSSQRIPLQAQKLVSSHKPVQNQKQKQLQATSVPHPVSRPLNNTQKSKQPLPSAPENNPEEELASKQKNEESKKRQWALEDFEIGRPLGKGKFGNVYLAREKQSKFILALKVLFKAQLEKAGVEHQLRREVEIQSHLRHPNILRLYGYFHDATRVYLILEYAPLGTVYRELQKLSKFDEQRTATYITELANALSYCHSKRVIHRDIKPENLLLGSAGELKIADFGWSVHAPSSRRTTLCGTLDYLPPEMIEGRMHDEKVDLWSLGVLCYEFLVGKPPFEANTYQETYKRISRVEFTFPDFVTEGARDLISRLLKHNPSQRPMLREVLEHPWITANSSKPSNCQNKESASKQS

Chain of Aurora kinase B-A (Q6DE08 whole entry): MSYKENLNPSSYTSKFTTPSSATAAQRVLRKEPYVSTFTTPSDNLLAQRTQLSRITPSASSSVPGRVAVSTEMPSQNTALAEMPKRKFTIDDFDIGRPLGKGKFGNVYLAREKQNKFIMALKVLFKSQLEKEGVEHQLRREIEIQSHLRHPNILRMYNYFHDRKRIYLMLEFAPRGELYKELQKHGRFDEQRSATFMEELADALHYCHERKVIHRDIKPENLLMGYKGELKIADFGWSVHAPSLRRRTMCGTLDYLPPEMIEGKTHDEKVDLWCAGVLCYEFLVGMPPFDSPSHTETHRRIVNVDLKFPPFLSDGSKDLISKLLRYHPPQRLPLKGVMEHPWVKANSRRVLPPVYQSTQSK
Chain of Aurora kinase B (Q96GD4 whole entry): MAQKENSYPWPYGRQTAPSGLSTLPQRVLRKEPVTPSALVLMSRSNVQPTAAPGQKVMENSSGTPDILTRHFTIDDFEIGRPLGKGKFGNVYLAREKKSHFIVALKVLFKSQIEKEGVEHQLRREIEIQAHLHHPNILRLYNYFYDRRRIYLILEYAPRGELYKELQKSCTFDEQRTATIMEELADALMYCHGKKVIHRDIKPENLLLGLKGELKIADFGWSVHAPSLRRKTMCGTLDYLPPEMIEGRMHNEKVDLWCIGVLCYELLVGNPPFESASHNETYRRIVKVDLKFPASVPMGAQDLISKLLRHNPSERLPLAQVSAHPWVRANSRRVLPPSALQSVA
Description for Aurora kinase A: Inhibition of human Aurora kinase A/TPX2 complex using gamma-[32P]ATP incubated for 1 hr by autoradiography

Turning to `Cc1cc(Nc2cc(N3CCN(C)CC3)nc(Sc3ccc(NC(=O)C4CC4)cc3)n2)[nH]n1` [TOZASERTIB], the IC50 against Aurora kinase B-A turned out to be 19 nM. Take `COc1cc2c(Nc3ccc(NC(=O)c4ccccc4)cc3)ncnc2cc1OCCCN1CCOCC1`: the half-maximal inhibitory concentration (IC50) against Aurora kinase B-A turned out to be 45 nM. Take `CCS(=O)(=O)Nc1ccc2c(c1)/C(=C(/Nc1ccc(CN3CCCCC3)cc1)c1ccccc1)C(=O)N2` [HESPERADIN]: the IC50 at Aurora kinase B-A was 3 nM; against Aurora kinase B, 3 nM; against Aurora kinase A, 11 nM.
